Assay results taken from PubChem BioAssay AID1259411 (Chemical Carcinogenesis Research Information System (CCRIS), 2018).
Activity calls are given as the source filed them. How the calls were made is not given here.

Test system: rodent carcinogenicity bioassays, tumor incidence
Assay: CCRIS carcinogenicity studies
Outline: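 Archive of carcinogenicity, mutagenicity, tumor promotion and tumor inhibition results drawn from journals, NCI reports and other sources, expert-reviewed; covers 1985-2011 and is no longer updated.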

CC1CO1 (stereo not drawn)
carcinogen call (Species: MOUSE, Strain/Sex: B6C3F1/FEMALE, Route: INHALATION, Dose: 0, 200, 400 PPM 6 HR/D, 5 D/WK FOR 103 WK, Dose: 0, 200, 400 PPM 6 HR/D, 5 D/WK FOR 103 WK, Tumor Site: Type of Lesion: NASAL TURBINATES: HEMANGIOMA OR HEMANGIOSARCOMA): active; positive
carcinogen call (Species: MOUSE, Strain/Sex: B6C3F1/MALE, Route: INHALATION, Dose: 0, 200, 400 PPM 6 HR/D, 5 D/WK FOR 103 WK, Dose: 0, 200, 400 PPM 6 HR/D, 5 D/WK FOR 103 WK, Tumor Site: Type of Lesion: NASAL TURBINATES: HEMANGIOMA, HEMANGIOSARCOMA): active; positive
carcinogen call (Species: MOUSE, Strain/Sex: NMRI/FEMALE, Route: SUBCUTANEOUS, Dose: 0, 0.1, 0.3, 1, 2.5 MG/MOUSE IN TRICAPRYLIN 1/WK FOR 95 WK (STUDY DURATION: 110 WK), Dose: 0, 0.1, 0.3, 1, 2.5 MG/MOUSE IN TRICAPRYLIN 1/WK FOR 95 WK (STUDY DURATION: 110 WK), Tumor Site: Type of Lesion: INJECTION SITE: TUMOR): active; positive
carcinogen call (Species: RAT, Route: SUBCUTANEOUS, Tumor Site: Type of Lesion: INJECTION SITE): active; positive
carcinogen call (Species: RAT, Strain/Sex: F344/FEMALE, Route: INHALATION, Dose: 0, 200, 400 PPM 6 HR/D, 5 D/WK FOR 103 WK, Dose: 0, 200, 400 PPM 6 HR/D, 5 D/WK FOR 103 WK, Tumor Site: Type of Lesion: NASAL TURBINATES: PAPILLARY ADENOMA): active; positive
carcinogen call (Species: RAT, Strain/Sex: F344/MALE, Route: INHALATION, Dose: 0, 100, 300 PPM IN AIR 7 HR/D 5 D/WK FOR 104 WK (STUDY DURATION: 2 YR), Dose: 0, 100, 300 PPM IN AIR 7 HR/D 5 D/WK FOR 104 WK (STUDY DURATION: 2 YR), Tumor Site: Type of Lesion: ADRENAL GLAND: PHEOCHROMOCYTOMA, PITUITARY GLAND: ADENOMA): active; positive
carcinogen call (Species: RAT, Strain/Sex: F344/MALE, Route: INHALATION, Dose: 0, 200, 400 PPM 6 HR/D, 5 D/WK FOR 103 WK, Dose: 0, 200, 400 PPM 6 HR/D, 5 D/WK FOR 103 WK, Tumor Site: Type of Lesion: NASAL TURBINATES: PAPILLARY ADENOMA): active; positive
carcinogen call (Species: RAT, Strain/Sex: SPRAGUE-DAWLEY/FEMALE, Route: GAVAGE, Dose: 15, 60 MG/KG IN SALAD OIL 2/WK FOR UP TO 150 WK, Tumor Site: Type of Lesion: FORESTOMACH: SQUAMOUS CELL CARCINOMA): active; positive
carcinogen call (Species: RAT, Strain/Sex: SPRAGUE-DAWLEY/MALE, Route: INHALATION, Dose: 0, 435, 870, 1740 PPM 6 HR/D 5 D/WK FOR 30 D EXCEPT 1740 PPM GROUP WHICH WAS EXPOSED FOR 5 D (STUDY DURATION: LIFETIME), Dose: 0, 435, 870, 1740 PPM 6 HR/D 5 D/WK FOR 30 D EXCEPT 1740 PPM GROUP WHICH WAS EXPOSED FOR 5 D (STUDY DURATION: LIFETIME)): inactive; negative

CCC(C)Br (stereo not drawn)
carcinogen call (Species: MOUSE, Route: INTRAPERITONEAL, Tumor Site: Type of Lesion: LUNG): active; positive

O=[N+]([O-])c1ccc2c3c(cccc13)-c1ccccc1-2
carcinogen call (Species: MOUSE, Strain/Sex: B6C3F1/MALE, Route: INTRAPERITONEAL, Dose: 0, 400 NMOL IN 35 µL DMSO ON DAYS 1 (1/7 TOTAL DOSE), 8 (2/7 TOTAL DOSE), AND 15 (4/7 TOTAL DOSE) AFTER BIRTH (STUDY DUR): inactive; negative
carcinogen call (Species: MOUSE, Strain/Sex: ICR/FEMALE, Route: INTRAPERITONEAL, Dose: 0, 63 UG TOTAL DOSE (9 UG/5 µL, 18 UG/10 µL, 36 UG/20 µL DMSO ON DAYS 1, 8 AND 15), 315 UG TOTAL DOSE (45 UG/5 µL, 90 UG, Dose: 0, 63 UG TOTAL DOSE (9 UG/5 µL, 18 UG/10 µL, 36 UG/20 µL DMSO ON DAYS 1, 8 AND 15), 315 UG TOTAL DOSE (45 UG/5 µL, 90 UG, Tumor Site: Type of Lesion: LUNG: ADENOMA): active; positive
carcinogen call (Species: MOUSE, Strain/Sex: ICR/MALE, Route: INTRAPERITONEAL, Dose: 0, 63 UG TOTAL DOSE (9 UG/5 µL, 18 UG/10 µL, 36 UG/20 µL DMSO ON DAYS 1, 8 AND 15), 315 UG TOTAL DOSE (45 UG/5 µL, 90 UG, Dose: 0, 63 UG TOTAL DOSE (9 UG/5 µL, 18 UG/10 µL, 36 UG/20 µL DMSO ON DAYS 1, 8 AND 15), 315 UG TOTAL DOSE (45 UG/5 µL, 90 UG, Tumor Site: Type of Lesion: LUNG: ADENOMA): active; positive
carcinogen call (Species: RAT, Strain/Sex: F344/DUCRJ FISCHER/MALE, Route: SUBCUTANEOUS, Dose: 2 MG TWICE WEEKLY FOR A TOTAL OF 15 INJECTIONS (STUDY DURATION: 52 WK), Tumor Site: Type of Lesion: INTEGUMENTARY SYSTEM: FIBROUS HISTIOCYTOMAS): active; positive
carcinogen call (Species: RAT, Strain/Sex: F344/MALE, Route: LUNG IMPLANT, Dose: 0, 1000 UG SUSPENDED IN BEESWAX/TRICAPRYLIN INTO LOWER LEFT LUNG ONCE (STUDY DURATION: 100 WK)): inactive; negative
carcinogen call (Species: RAT, Strain/Sex: F344/MALE, Route: PULMONARY IMPLANT, Dose: 0, 1000 UG IN 50 µL BEESWAX/TRICAPRYLIN IMPLANTED FOR UP TO 100 WK (STUDY DURATION: 100 WK)): inactive; negative

CCOP(=S)(OCC)Oc1cc(C)nc(C(C)C)n1
carcinogen call (Species: MOUSE, Strain/Sex: B6C3F1/FEMALE, Route: ORAL, Dose: 0, 100, 200 PPM IN DIET, Dose: 0, 100, 200 PPM IN DIET): inactive; negative
carcinogen call (Species: MOUSE, Strain/Sex: B6C3F1/MALE, Route: ORAL, Dose: 0, 100, 200 PPM IN DIET, Dose: 0, 100, 200 PPM IN DIET): inactive; negative
carcinogen call (Species: RAT, Strain/Sex: F344/FEMALE, Route: ORAL, Dose: 0, 400, 800 PPM IN DIET, Dose: 0, 400, 800 PPM IN DIET): inactive; negative
carcinogen call (Species: RAT, Strain/Sex: F344/MALE, Route: ORAL, Dose: 0, 400, 800 PPM IN DIET, Dose: 0, 400, 800 PPM IN DIET): inactive; negative

COC(=O)c1cc(Oc2ccc(Cl)cc2Cl)ccc1[N+](=O)[O-]
carcinogen call (Species: Mouse, Strain/Sex: B6C3F1/Female (60/sex/group), Route: Oral, Dose: 0, 50, 200, 1000 ppm in feed for 24 mo, Dose: 0, 50, 200, 1000 ppm in feed for 24 mo): inactive; negative; purity 98.3%
carcinogen call (Species: Mouse, Strain/Sex: B6C3F1/Male (60/sex/group), Route: Oral, Dose: 0, 50, 200, 1000 ppm in feed for 24 mo, Dose: 0, 50, 200, 1000 ppm in feed for 24 mo, Tumor Site: Type of Lesion: Liver: Significant increase in hepatic adenomas and carcinomas at highest dose): active; positive; purity 98.3%
carcinogen call (Species: Rat, Strain/Sex: Sprague-Dawley/Female (50/sex/group), Route: Oral, Dose: 0, 500, 1580, 5000 ppm in feed for 104 wk, Dose: 0, 500, 1580, 5000 ppm in feed for 104 wk): inactive; negative; purity 98%
carcinogen call (Species: Rat, Strain/Sex: Sprague-Dawley/Male (50/sex/group), Route: Oral, Dose: 0, 500, 1580, 5000 ppm in feed for 104 wk, Dose: 0, 500, 1580, 5000 ppm in feed for 104 wk): inactive; negative; purity 98%

Nc1ccc(-c2ccc(N)cc2)cc1
carcinogen call (Species: DOG, Route: ORAL, Tumor Site: Type of Lesion: URINARY BLADDER): active; positive
carcinogen call (Species: HAMSTER, Route: ORAL, Tumor Site: Type of Lesion: LIVER): active; positive
carcinogen call (Species: HUMAN, Route: ORAL, INHALATION, DERMAL, Tumor Site: Type of Lesion: URINARY BLADDER): active; positive
carcinogen call (Species: MOUSE, Route: SUBCUTANEOUS, Tumor Site: Type of Lesion: LIVER): active; positive
carcinogen call (Species: RAT, Route: ORAL, Tumor Site: Type of Lesion: LIVER): active; positive
carcinogen call (Species: RAT, Route: SUBCUTANEOUS, Tumor Site: Type of Lesion: LIVER, EAR (ZYMBAL GLAND), INJECTION SITE, Tumor Site: Type of Lesion: LIVER, EAR (ZYMBAL GLAND), INJECTION SITE): active; positive
carcinogen call (Species: RAT, Strain/Sex: STRAIN-CD/FEMALE, Route: INTRAPERITONEAL, Dose: 0, 10, 30 UMOL/KG IN TRIOCTANOIN 2/WK FOR 4 WK (TOTAL DOSES: 13.5, 40.1 UMOL) (STUDY DURATION: 46 WK), Dose: 0, 10, 30 UMOL/KG IN TRIOCTANOIN 2/WK FOR 4 WK (TOTAL DOSES: 13.5, 40.1 UMOL) (STUDY DURATION: 46 WK), Tumor Site: Type of Lesion: MAMMARY GLAND: FIBROADENOMA, ADENOCARCINOMA, EAR (ZYMBAL GLAND): ADENOMA OR CARCINOMA): active; positive

O=C(CO)CO
carcinogen call (Species: MOUSE, Strain/Sex: SWISS/FEMALE, Route: DERMAL, Dose: 0, 5, 40% AQUEOUS SOLUTION APPLIED 1/WK FOR 80 WK (STUDY DURATION: 80 WK), Dose: 0, 5, 40% AQUEOUS SOLUTION APPLIED 1/WK FOR 80 WK (STUDY DURATION: 80 WK)): inactive; negative
carcinogen call (Species: MOUSE, Strain/Sex: SWISS/MALE, Route: DERMAL, Dose: 0, 5%, 40% AQUEOUS SOLUTION APPLIED 1/WK FOR 80 WK (STUDY DURATION: 80 WK), Dose: 0, 5%, 40% AQUEOUS SOLUTION APPLIED 1/WK FOR 80 WK (STUDY DURATION: 80 WK)): inactive; negative
